# How the values were obtained:
# [1] = test system: endothelial cells; assay: In vitro cell culture cytotoxicity, percent cell viability by ATP assay (ViaLight Plus); details: 0.1-40 ng/ml Taxol equivalent
# Experimental: (§1) In vitro assays were conducted using endothelial cells and smooth muscle cells.
# (§2) The cells were then fed again with fresh medium (Endothelial Growth Media, EGM-2 BulletKit, Cambrex) and increasing doses of the test substrates were introduced at the following concentrations: 0.1, 0.5, 1, 2, 8 and 40 ng/ml in triplicate. […] The percent cell viability was then determined at 24, 48 and 72 hours following exposure to the test substances, using a standard ATP assay (ViaLight Plus assay kit, Cambrex).
# [2] = in vitro; details: endothelial cells
# Experimental: as §1, §2
# [3] = ionizable group of side chain R3 of natural amino acid residue; tabulated as a guide; cited from earlier work
structure (smiles),measurement,setting,value
"CC(=O)O[C@H]1C(=O)[C@@]2(C)[C@H]([C@H](OC(=O)c3ccccc3)[C@]3(O)C[C@H](OC(=O)[C@H](OC(=O)CCC(=O)O)[C@@H](NC(=O)c4ccccc4)c4ccccc4)C(C)=C1C3(C)C)[C@]1(OC(C)=O)CO[C@@H]1C[C@@H]2O [Taxol-SA, Taxol-2′-hemisuccinate]",cytotoxicity to the cells (in words),[1],does not appear to change the cytotoxicity
"CC(=O)O[C@H]1C(=O)[C@@]2(C)[C@H]([C@H](OC(=O)c3ccccc3)[C@]3(O)C[C@H](OC(=O)[C@H](O)[C@@H](NC(=O)c4ccccc4)c4ccccc4)C(C)=C1C3(C)C)[C@]1(OC(C)=O)CO[C@@H]1C[C@@H]2O [Taxol, 5β,20-Epoxy-1,2α,4,7β,10β,13α-hexahydroxytax-11-en-9-one 4,10-diacetate 2-benzoate 13-ester with (2R,3S)—N-benzoyl-3-phenylisoserine]","viability at 72 h, 0.1 ng/ml",[2],126%
same,"viability at 72 h, 0.5 ng/ml",[2],123%
same,"viability at 72 h, 1 ng/ml",[2],114%
same,"viability at 72 h, 2 ng/ml",[2],90%
same,"viability at 72 h, 8 ng/ml",[2],38.6%
same,"viability at 72 h, 40 ng/ml",[2],15.5%
N[C@@H](CCC(=O)O)C(=O)O [Glutamic acid],pK,[3],4.07
N[C@@H](Cc1c[nH]cn1)C(=O)O [Histidine],pK,[3],6.10
N[C@@H](Cc1ccc(O)cc1)C(=O)O [Tyrosine],pK,[3],10.0
NCCCC[C@H](N)C(=O)O [Lysine],pK,[3],10.5

# Source: patent publication US20070282011A1, “Biodegradable water soluble polymers” (MediVas, LLC, priority 2006, published 2007)
